{"source": "patent US9540691B2", "about": "“Assays and methods for selecting a treatment regimen for a subject with depression” (THE GENERAL HOSPITAL CORPORATION, priority 2011, dated 2017)", "test_system": "MDD patients carrying the indicated conditions", "procedure": "Folate levels are classified as either low (<=2.5 ng/ml) or normal; and homocysteine levels as either normal or elevated (>=[…]). The presence or absence of at least one […] allele for the MTHFR gene are entered as a dichotomous variable (present or absent). […] Using folate as an example predicator, the presence or absence of a low serum-folate level along with treatment assignment can be entered in a 2×2, factorial ANOVA, using depression improvement scores (baseline minus endpoint HAM-D-17 scores) as the dependant variable. […] Similar analyses (i.e. separate 2×2 ANOVA's) can be performed substituting the presence of low folate levels for the presence of other predictors as described herein. Similarly, the effect of other predictors can be indicated by the interaction term representing the potential modulating influence of those variables.\nParticularly, specific genetic and biomarkers that were assessed include the following: • (a) BMI calculation of at least about 30 kg/m^2; • (b) an expression ratio of SAM/SAH smaller than 2.8 (e.g., 2.71) as measured in a plasma sample; • (c) a level of 4-HNE no less than 3.28 μg/mL (as measured in a plasma sample); • (d) presence of rare variants CT or TT at position 677 of SEQ ID NO: 1 corresponding to a portion of a genomic nucleic acid sequence of methylenetetrahydrofolate reductase (MTHFR) (abbreviated as “MTHFR 677” below); • (e) presence of rare variants AG or GG at position 2756 of SEQ ID NO: 2 corresponding to a portion of genomic nucleic acid sequence of methionine synthase (MTR) (abbreviated as “MTR 2756” below); and • (f) presence of rare variants AG or GG at position 66 of SEQ ID NO: 3 corresponding to a portion of genomic nucleic acid sequence of methionine synthase reductase (MTRR) (abbreviated as “MTRR 66” below).\nThe efficacy effect is determined by measuring the mean change in the HAMD-17 score and HAMD-28 score by the end of Phase I and Phase II, as compared to the baseline.", "key": {"[1]": {"conditions": "Pooled phases, interaction of BMI with the treatment, with SSRI"}, "[2]": {"conditions": "Pooled phases, interaction of HNE-his with the treatment, with SSRI"}, "[3]": {"conditions": "Pooled phases, interaction of SAM/SAH with the treatment, with SSRI"}}, "note": "Where two headings read alike, the source gives them in different places. Marks after values point to notes of the source that are not given here.", "data": [{"compound": "CN1c2c(nc(N)[nH]c2=O)NC[C@@H]1CNc1ccc(C(=O)N[C@@H](CCC(=O)O)C(=O)O)cc1", "note": "[6(S)-5-MTHF, 6(S)-5-methyltetrahydrofolate]", "values": [{"measurement": "Effect, change in HAMD-17 score", "setting": "Pooled phases, MTHFR 677 CC and MTR 2756 AA (29,13), with SSRI", "value": 0.722}, {"measurement": "Effect, change in HAMD-28 score", "setting": "Pooled phases, MTHFR 677 CC and MTR 2756 AA, with SSRI", "value": 0.711}, {"measurement": "Effect, change in HAMD-17 score", "setting": "Pooled phases, MTHFR 677 CT or TT and BMI >= 30 kg/m^2 (13,6), with SSRI", "value": "−8.090"}, {"measurement": "Effect, change in HAMD-28 score", "setting": "Pooled phases, MTHFR 677 CT or TT and BMI >= 30 kg/m^2, with SSRI", "value": "−9.884"}, {"measurement": "Effect, change in HAMD-17 score", "setting": "Pooled phases, MTHFR 677 CT or TT and HNE-His >= median (11,6), with SSRI", "value": "−9.446"}, {"measurement": "Effect, change in HAMD-28 score", "setting": "Pooled phases, MTHFR 677 CT or TT and HNE-His >= median, with SSRI", "value": "−9.865"}, {"measurement": "Effect, change in HAMD-17 score", "setting": "Pooled phases, MTHFR 677 CT or TT and MTR 2756 AG or GG (8,4), with SSRI", "value": "−18.71"}, {"measurement": "Effect, change in HAMD-28 score", "setting": "Pooled phases, MTHFR 677 CT or TT and MTR 2756 AG or GG, with SSRI", "value": "−23.29"}, {"measurement": "Effect, change in HAMD-17 score", "setting": "Pooled phases, MTR 2756 AA (45,21), with SSRI", "value": "−0.590"}, {"measurement": "Effect, change in HAMD-17 score", "setting": "Pooled phases, MTR 2756 AA and BMI < 30 kg/m^2 (17,7), with SSRI", "value": 3.196}, {"measurement": "Effect, change in HAMD-28 score", "setting": "Pooled phases, MTR 2756 AA and BMI < 30 kg/m^2, with SSRI", "value": 3.352}, {"measurement": "Effect, change in HAMD-17 score", "setting": "Pooled phases, MTR 2756 AA and HNE-His < median (26,13), with SSRI", "value": 1.319}, {"measurement": "Effect, change in HAMD-28 score", "setting": "Pooled phases, MTR 2756 AA and HNE-His < median, with SSRI", "value": 2.085}, {"measurement": "Effect, change in HAMD-17 score", "setting": "Pooled phases, MTR 2756 AA and MTRR 66 AA (11,5), with SSRI", "value": "−1.373"}, {"measurement": "Effect, change in HAMD-17 score", "setting": "Pooled phases, MTR 2756 AA and MTRR 66 AA and HNE-His < median (6,4), with SSRI", "value": 0.466}, {"measurement": "Effect, change in HAMD-28 score", "setting": "Pooled phases, MTR 2756 AA and MTRR 66 AA and HNE-His < median = 3.28 (plasma sample), with SSRI", "value": "−2.221"}, {"measurement": "Effect, change in HAMD-17 score", "setting": "Pooled phases, MTR 2756 AA and MTRR 66 AA and SAM/SAH >= median (6,3), with SSRI", "value": "−3.98*"}, {"measurement": "Effect, change in HAMD-28 score", "setting": "Pooled phases, MTR 2756 AA and MTRR 66 AA and SAM/SAH >= median, with SSRI", "value": "−3.74*"}, {"measurement": "Effect, change in HAMD-28 score", "setting": "Pooled phases, MTR 2756 AA and MTRR 66 AA, with SSRI", "value": "−3.032"}, {"measurement": "Effect, change in HAMD-17 score", "setting": "Pooled phases, MTR 2756 AA and SAM/SAH >= median (24,12), with SSRI", "value": 0.054}, {"measurement": "Effect, change in HAMD-28 score", "setting": "Pooled phases, MTR 2756 AA and SAM/SAH >= median, with SSRI", "value": "−0.071"}, {"measurement": "Effect, change in HAMD-28 score", "setting": "Pooled phases, MTR 2756 AA, with SSRI", "value": "−0.047"}, {"measurement": "Effect, change in HAMD-17 score", "setting": "Pooled phases, MTR 2756 AG or GG and BMI >= 30 kg/m^2 (10,5), with SSRI", "value": "−11.714"}, {"measurement": "Effect, change in HAMD-28 score", "setting": "Pooled phases, MTR 2756 AG or GG and BMI >= 30 kg/m^2, with SSRI", "value": "−14.433"}, {"measurement": "Effect, change in HAMD-17 score", "setting": "Pooled phases, MTR 2756 AG or GG and HNE-His >= median (13,7), with SSRI", "value": "−8.072"}, {"measurement": "Effect, change in HAMD-28 score", "setting": "Pooled phases, MTR 2756 AG or GG and HNE-His >= median = 3.28 (plasma sample), with SSRI", "value": "−9.508"}, {"measurement": "Effect, change in HAMD-17 score", "setting": "Pooled phases, MTR 2756 AG or GG and MTRR 66 AG or GG (15,7), with SSRI", "value": "−6.976"}, {"measurement": "Effect, change in HAMD-17 score", "setting": "Pooled phases, MTR 2756 AG or GG and MTRR 66 AG or GG and BMI >= 30 kg/m^2 (8,4), with SSRI", "value": "−10.972"}, {"measurement": "Effect, change in HAMD-28 score", "setting": "Pooled phases, MTR 2756 AG or GG and MTRR 66 AG or GG and BMI >= 30 kg/m^2, with SSRI", "value": "−15.347"}, {"measurement": "Effect, change in HAMD-17 score", "setting": "Pooled phases, MTR 2756 AG or GG and MTRR 66 AG or GG and HNE-His >= median (10,4), with SSRI", "value": "−7.942"}, {"measurement": "Effect, change in HAMD-28 score", "setting": "Pooled phases, MTR 2756 AG or GG and MTRR 66 AG or GG and HNE-His >= median, with SSRI", "value": "−10.241"}, {"measurement": "Effect, change in HAMD-28 score", "setting": "Pooled phases, MTR 2756 AG or GG and MTRR 66 AG or GG, with SSRI", "value": "−9.348"}, {"measurement": "Effect, change in HAMD-17 score", "setting": "Pooled phases, MTR 2756 AG or GG and SAM/SAH < median (10,4), with SSRI", "value": "−5.583"}, {"measurement": "Effect, change in HAMD-28 score", "setting": "Pooled phases, MTR 2756 AG or GG and SAM/SAH < median = 2.71 (plasma sample), with SSRI", "value": "−11.683"}, {"measurement": "Effect, change in HAMD-17 score", "setting": "Pooled phases, MTR 2756 AG/GG (20,11), with SSRI", "value": "−5.677"}, {"measurement": "Effect, change in HAMD-28 score", "setting": "Pooled phases, MTR 2756 AG/GG, with SSRI", "value": "−8.243"}, {"measurement": "Effect, change in HAMD-17 score", "setting": "Pooled phases, MTRR 66 AA and HNE-His < median (8,5), with SSRI", "value": 2.575}, {"measurement": "Effect, change in HAMD-28 score", "setting": "Pooled phases, MTRR 66 AA and HNE-His < median = 3.28 (plasma sample), with SSRI", "value": "−2.626"}, {"measurement": "Effect, change in HAMD-17 score", "setting": "Pooled phases, MTRR 66 AA and SAM/SAH >= median (9,6), with SSRI", "value": "−2.978"}, {"measurement": "Effect, change in HAMD-28 score", "setting": "Pooled phases, MTRR 66 AA and SAM/SAH >= median, with SSRI", "value": "−1.221"}, {"measurement": "Effect, change in HAMD-17 score", "setting": "Pooled phases, MTRR 66 AG or GG and HNE-His >= median (24,11), with SSRI", "value": "−4.850"}, {"measurement": "Effect, change in HAMD-17 score", "setting": "Pooled phases, MTRR 66 AG or GG and SAM/SAH < median (24,10), with SSRI", "value": "−5.879"}, {"measurement": "Effect, change in HAMD-28 score", "setting": "Pooled phases, MTRR 66 AG or GG and SAM/SAH < median = 2.71 (plasma sample), with SSRI", "value": "−6.579"}, {"measurement": "Effect, change in HAMD-17 score", "setting": "Pooled phases, SAM/SAH < median and HNE-His >= median (19,7), with SSRI", "value": "−9.898"}, {"measurement": "Effect, change in HAMD-28 score", "setting": "Pooled phases, SAM/SAH < median and HNE-His >= median, with SSRI", "value": "−9.500"}, {"measurement": "Effect, change in HAMD-17 score", "setting": "Pooled phases, SAM/SAH >= median and HNE-His < median (18,8), with SSRI", "value": 2.107}, {"measurement": "Effect, change in HAMD-28 score", "setting": "Pooled phases, SAM/SAH >= median and HNE-His < median, with SSRI", "value": 2.413}, {"measurement": "Effect, change in HAMD-17 score: BMI*treat", "setting": "[1]", "value": "−0.233"}, {"measurement": "Effect, change in HAMD-28 score: BMI*treat", "setting": "[1]", "value": "−0.270"}, {"measurement": "Effect, change in HAMD-17 score: HNE-his*treat", "setting": "[2]", "value": 0.626}, {"measurement": "Effect, change in HAMD-28 score: HNE-his*treat", "setting": "[2]", "value": 0.685}, {"measurement": "Effect, change in HAMD-17 score: SAM/SAH*treat", "setting": "[3]", "value": 0.882}, {"measurement": "Effect, change in HAMD-28 score: SAM/SAH*treat (last line)", "setting": "[3]", "value": 1.112}, {"measurement": "Effect, change in HAMD-17 score: baseHAMD-17*treat", "setting": "Pooled phases, interaction of base HAMD-17 with the treatment, with SSRI", "value": "−0.025"}, {"measurement": "Effect, change in HAMD-28 score: SAM/SAH*treat (first line under HAMD28)", "setting": "Pooled phases, interaction with the treatment, with SSRI", "value": 0.882}, {"measurement": "improvement in HDRS-28 or CGI-S, patients with at least one T allele at MTHFR 677 vs no T allele (in words)", "setting": "in combination with an SSRI, FIGS. 4A-4B", "value": "greater degree of improvement"}, {"measurement": "improvement in HAMD-28 or CGI-S, obese (BMI at least 30 kg/m^2) vs non-obese patients (in words)", "setting": "in combination with an SSRI, FIGS. 5A-5B", "value": "greater degree of improvement"}]}]}
